Measured values published in paper PMC9096165 (Frontiers in Pharmacology, 2022).
Read-outs that look alike come from different tables or passages of the source.

How the values were obtained:
[1] = Pharmacokinetics after single intravenous and oral administration; type: in vivo, male Wistar Han rats
Procedure: Pharmacokinetics of DF2755A, dissolved in saline solution (NaCl 0.9% w/v), was investigated after single intravenous and oral administrations in male Wistar Han rats. DF2755A was given as a single dose in three animals/group by intravenous (bolus) and oral (by gavage) administrations at a dose of 20 mg/kg. Pharmacokinetic evaluation was carried out on blood samples collected on day 1 at six time points from three animals/group (serial sampling).

[2] = test system: CYP-induced non-ulcerative IC rat model; assay: Mechanical nociceptive abdominal and hind paw test (Von Frey) in chronic CYP-induced non-ulcerative IC/BPS; type: in vivo, female Sprague–Dawley rats
Procedure: CYP was administered to the animals by the intraperitoneal (i.p.) route (5 ml kg^−1) at the dosage of 75 mg kg^−1 for three times every third day to elicit chronic bladder irritation, as previously described ([Vizzard et al., 1996]).
DF2755A was administered by oral gavage (2 ml kg^−1) at different doses and times before, during, or after CYP treatment, as specified hereunder. DF2755A dosages were chosen based on previous studies that described pharmacokinetics, pharmacodynamics, and pharmacological characterization of the compound ([Lopes et al., 2016]).
Acute treatment: DF2755A was administered 24 h after the last CYP administration at 3, 7, 10, and 30 mg kg^−1.
Chronic preventive treatment: DF2755A was administered 12 h before the first CYP administration (20 mg kg^−1) and then twice daily (7 mg kg^−1) for 7 days during IC development.
Chronic therapeutic treatment: DF2755A was administered twice daily for 7 days at 7 mg kg^−1, starting from 24 h after the last CYP injection.
On the day of the test, each rat was placed individually in a clear plastic testing box with a grid floor and allowed to acclimatize for at least 10 min. Peripheral sensitivity in response to mechanical stimuli was determined using Von Frey monofilaments (1-2-4-8-15-26-60–100 g; Ugo Basile, Comerio, Varese, Italy) applied in the lower abdominal area (close to the urinary bladder) and on both hind paw plantar surfaces (to evaluate referred pain).
Each Von Frey monofilament was applied five times at the level of abdomen and three times at the level of each paw, in an ascending order of strength at interval of 5 s. A stimulus-induced response was considered positive when the paw was sharply withdrawn, paw licking occurred, or the animal flinched upon removal of the filament.
Behavioral testing was performed at different times: • 1) before CYP administration, in order to acquire basal values; • 2) after CYP administration and before DF2755A treatment, in order to verify the pathology induction and acquire pre-treatment values; • 3) at different times after DF2755A treatment, in order to acquire post-treatment values, specifically at 2 and 18 h after the last treatment.

[3] = Routes and rates of excretion after single oral [14C]DF2755A; type: in vivo; details: single oral 20 mg/kg, female SD rats
Procedure: Prior to administration and for acclimatization, animals (n = 6) were transferred to individual metabolic cages and were left therein for the duration of the study except for a short period during dosing. The metabolic cages were specifically designed for the separate collection of urine and feces. The preparation of dose formulation was performed on the day of experiment. The test item was dissolved in the appropriate volume of saline solution (NaCl, 0.9% w v^−1) to achieve the dose volume of 5 ml kg^−1. The resulting solution was then administered via a gavage fed down the esophagus to enable the formulation to be dispensed directly into the stomach.
Radioactivity was extracted from the selected feces and urine homogenate pools with appropriate solvents based on methodology developed at Quotient (Rushden) Ltd. and analyzed by quantitative radioactivity analysis (QRA).

[4] = test system: CXCL5; assay: CXCL5 ELISA in bladder tissue; type: in vivo, rat; details: preventive: 20 mg kg^−1 + 7 mg kg^−1 twice daily for 7 days, CYP rats
Procedure: Animals pre-treated with the vehicle or a single high oral dose of DF2755A (20 mg kg^−1; 12 h before the first CYP administration) followed by repeated lower doses administration (7 mg kg^−1 twice daily for 7 days) during IC development were deeply anesthetized with isoflurane (4%) and then killed.
After killing, rat abdomen was opened through a midline incision, and bladder and proximal urethra were exposed. A catheter was inserted into the bladder through the urethra and a loose ligature was placed around the neck of the urinary bladder. Bladder was inflated with saline via the catheter to slightly distend the bladder and ligature was tightened to maintain proper distension. Bladder was then excised cutting above the insertion point of ureters, and therefore the bladder neck was not included into the bladder sample. […] One piece (B1) was placed in Eppendorf, then snap-frozen in liquid nitrogen, and stored at −80°C until quantification using ELISA assay. […] For the microscopic observations of bladder inflammation, the following parameters were analyzed: bladder edema in scores (n = 10/group), bladder hemorrhage in scores (n = 10/group), urothelial loss in scores (n = 10/group), and total inflammatory score, which was calculated by adding all the individual lesion scores (n = 10/group). […]

[5] = intravenous 20 mg kg^−1, male Wistar Han rats
[6] = acute oral treatment 24 h after last CYP, abdomen and hind paw, 2 h after administration
[7] = preventive: 20 mg kg^−1 12 h before first CYP, then 7 mg kg^−1 twice daily for 7 days p.o., 24 h after last CYP
[8] = therapeutic 7 mg kg^−1 twice daily for 7 days, 3 and 7 days after treatment discontinuation
[9] = therapeutic 7 mg kg^−1 twice daily for 7 days, 18 h after the last administration

C[C@H](C(=O)[O-])c1ccc(Nc2nc(C(F)(F)F)cs2)cc1.[Na+] [DF2755A, sodium (2S)-2-(4-{[4-(trifluoromethyl)-1,3-thiazol-2-yl]amino}phenyl)propanoate]
overall systemic exposure (AUC0-t (last)) [1, 5]: 578,017 ng/mlh
systemic clearance [1, 5]: slow
half-life ([1]; male, Wistar Han, rat, plasma, 20 mg/kg, route not stated, read-out: half-life (converted)): 6.8 h
bioavailability ([1]; rat, plasma, po, 20 mg/kg, male Wistar Han rats, read-out: oral absolute bioavailability (F%)): 86.2%
C0 ([1]; rat, plasma, intravenous 20 mg kg^−1, male Wistar Han rats, read-out: Plasma concentration at time zero (C0)): 117 µg/mL
half-life ([1]; rat, plasma, intravenous 20 mg kg^−1, male Wistar Han rats, read-out: t1/2,z (converted)): 8.1 h
Vd ([1]; rat, plasma, intravenous 20 mg kg^−1, male Wistar Han rats, read-out: volume of distribution at steady state): < 1 L/kg
Tmax ([1]; rat, plasma, oral 20 mg/kg, male Wistar Han rats): 2 h
Cmax ([1]; rat, plasma, oral 20 mg/kg, male Wistar Han rats, read-out: maximum plasma concentration (Cmax)): 43.5 µg/mL
AUC(0-t) ([1]; rat, plasma, oral 20 mg/kg, male Wistar Han rats, read-out: overall systemic exposure (AUC0-t (last))): 498 µg·h/mL
distribution volume ([1]; route not stated): 0.35 L/kg
dose at which the antinociceptive effects reached a plateau [2, 6]: 7 mg/kg
dose from which the antinociceptive effect was statistically significant [2, 6]: 3 mg/kg
decrease of mechanical stimulus threshold versus basal values, hind paws [2, 7]: 17%
decrease of mechanical stimulus threshold versus basal values, low abdomen [2, 7]: about 30%
duration of anti-hyperalgesic effect after treatment discontinuation ([2]; therapeutic 7 mg kg^−1 twice daily for 7 days): up to 7 days
decrease of the threshold to mechanical stimulus, hind paw plantar surfaces [2, 8]: 40%
reduction of the threshold to mechanical stimulus, low abdomen [2, 8]: 53%
decrease of mechanical stimulus threshold, low abdomen [2, 9]: 55%
decrease of the threshold to mechanical stimulus, hind paw plantar surfaces [2, 9]: 33%
reduction of the threshold to mechanical stimuli, low abdomen ([2]; therapeutic: 7 mg kg^−1 twice daily for 7 days p.o. from 24 h after last CYP, 2 h after last treatment (Figure 4A)): 24%
decrease of the threshold to mechanical stimuli, hind paw plantar surfaces ([2]; therapeutic: 7 mg kg^−1 twice daily for 7 days p.o. from 24 h after last CYP, 2 h after last treatment (Figure 4B)): 4%
overall mean recovery of radioactivity ([3]; 0 to 48 h post-dose): 97.67 % of dose
Mean recovery of radioactivity, feces ([3]; 0–168 h): 77.10 % dose
Mean recovery of radioactivity, total ([3]; 0–168 h): 102.06 % dose
Mean recovery of radioactivity, urine ([3]; 0–168 h): 24.13 % dose
bladder tissue expression of CXCL5 versus vehicle-treated rats [4]: strongly inhibited
